Results reported in US9950026B2, “Methods for reducing oxidative damage” (Cornell Research Foundation, Inc., priority 2004, dated 2018).
Entries after “also recorded” stand apart in the source; their conditions may differ. Where a SMILES comes first, the peptide text is derived from it. [ ]: non-standard residue; d: D form. Dmt = Cc1cc(O)cc(C)c1C[C@H](N)C(=O)O

Tests used:
N2A cells [1] = experiment: Cell viability, MTS assay, cells treated with tBHP; assay type: cell-based, murine; details: for EC50, increase of cell survival / cell survival (MTS): tBHP 0.5 or 1 mM 40 min, then peptide 4 hr
Experimental: (§1) Cells were washed twice and replaced with medium alone or medium containing varying concentrations of SS-02 or SS-31 for 4 hr. Intracellular ROS was measured by carboxy-H2DCFDA (Molecular Probes, Portland, Oreg.). Cell death was assessed by a cell proliferation assay (MTS assay, Promega, Madison, Wis.).
Neuronal N2A and SH-SY5Y cells were plated in 96-well plate at a density of 1×10^4/well and allowed to grow for 2 days before treatment with t-butyl hydroperoxide (tBHP) (0.05-0.1 mM) with or without SS-31 (10^−12 M to 10^−9 M for 24 h. Cell death was assessed by a cell proliferation assay (MTS assay, Promega, Madison, Wis.).

[2] = system: isolated guinea pig hearts; experiment: HNE-modified proteins in isolated hearts, brief ischemia-reperfusion (Langendorff); details: 100 nM SS-02, 1 nM SS-31
Experimental: Isolated guinea pig hearts were perfused in a retrograde manner in a Langendorff apparatus and subjected to various intervals of ischemia-reperfusion. Hearts were then fixed immediately and embedded in paraffin. Immunohistochemical analysis of 4-hydroxy-2-nonenol (HNE)-modified proteins in the paraffin sections was carried out using an anti-HNE antibody.
(A) Immunohistochemical analysis of 4-hydroxy-2-nonenol (HNE)-modified proteins in paraffin sections from guinea pig hearts aerobically perfused 30 min with (a) buffer; (b) 100 nM SS-02; (c) 100 nM SS-20 and (d) 1 nM SS-31, then subjected to 30 min ischemia and reperfused for 90 min with same peptides. Tissue slices were incubated with […] antibody. (e) Background control: staining without primary antibody.
(B) Immunohistochemical analysis of HNE-modified proteins in paraffin sections from guinea pig hearts aerobically perfused 30 min with buffer; then subjected to 30 min ischemia and reperfused with (a) buffer; (b) 100 nM SS-02; (c) 100 nM SS-20 and (d) 1 nM SS-31 for 90 min with same peptides. Tissue slices were incubated with anti-HNE antibody. (e) Background control staining without primary antibody.

[3] = system: isolated mouse liver mitochondria; experiment: H2O2 production by isolated mitochondria, luminol chemiluminescence; assay type: biochemical; details: for amount of H2O2 generated (AUC over 20 min): spontaneous, SS peptides 100 μM
Experimental: Because mitochondria are a major source of ROS production, the effect of SS-02 on H2O2 formation in isolated mitochondria under basal conditions as well as after treatment with antimycin, a complex III inhibitor was examined. Livers were harvested from mice and homogenized in ice-cold buffer and centrifuged at 13800×g for 10 m. The pellet was washed once and then re-suspended in 0.3 ml of wash butter and placed on ice until use H2O2 was measured using luminol chemiluminescence as described previously (Y. Li, H. Zhu, M. A. Trush, Biochim. Biophys. Acta 1428, 1-12 (1999)). 0.1 mg mitochondrial protein was added to 0.5 ml potassium phosphate buffer (100 mM, pH 8.0) in the absence or presence of SS peptides (100 μM). 25 mM luminol and 0.7 IU horseradish peroxidase were added, and chemilumunescence was monitored with a Chronolog Model 560 aggregometer (Havertown, Pa.) for 20 min at 37° C. The amount of H2O2 produced was quantified as the area under the curve (AUC) over 20 min, and all data were normalized to AUC produced by mitochondria alone.
H2O2 was measured using luminol chemiluminescence as described previously (Y, Li, H. Zhu, M. A. Trush, Biochim. Biophys. Acta 1428, 1-12 (1999)). 0.1 mg mitochondrial protein was added to 0.5 ml potassium phosphate buffer (100 mM, pH 8.0) in the absence or presence of SS-31. 25 mM luminol and 0.7 IU horseradish peroxidase were added, and chemilumunescence was monitored with a Chronolog Model 560 aggregometer (Havertown, Pa.) for 20 min at 37° C. The amount of H2O2 produced was quantified as the area under the curve (AUC) over 20 min, and all data were normalized to AUC produced by mitochondria alone.

N2A cells [4] = experiment: Intracellular ROS (DCF fluorescence) in cells treated with tBHP; assay type: cell-based, murine; details: for EC50, reduction of intracellular ROS / intracellular ROS: tBHP 0.5 or 1 mM 40 min, then peptide 4 hr
Experimental: FIG. 22A-22C. […] (A) N2A cells were loaded with DCFDA, and then exposed to 100 μM tBHP alone, or with SS-31. Intracellular ROS was quantified by the formation of fluorescent DCF. Results shown are mean values (n=3). (B)(a-c) N2A cells were plated in glass bottom dishes and treated with 50 μM tBHP, alone or with 1 nM SS-31, for 6 h. Cells were loaded with DCFDA (10 μM) and imaged by confocal laser scanning microscopy using ex/em of 495/525 nm. (C) Effect of 1 nM SS-31 in reducing intracellular ROS induced by 50 μM tBHP (*P<0.001 compared to untreated cells; *P<0.05 compared to tBHP alone).
as §1
Intracellular ROS was evaluated using the fluorescent probe DCFH-DA (5-(and -6)-carboxy-2′,7′-dichlorodihydrofluorescein diacetate). DCFH-DA enters cells passively and is then deacetylated to nonfluorescent DCFH. DCFH reacts with ROS to form DCF, the fluorescent product. N2A cells in 96 sell plates were washed with HBSS and loaded with 10 μM of DCFDA for 30 min. […]. at 37° C. Cells were washed 3 times with BSS and exposed to 0.1 mM of t-BHP, alone or with SS-31. The oxidation of DCF was monitored in real time by a fluorescence microplate reader (Molecular Devices) using 485 nm for excitation and 530 nm for emission.
N2A cells in glass bottom dish were treated with 0.1 mM t-BHP, alone or with 1 nM SS-31, for 6 h. Cells were then loaded with 10 μm of dichlorofluorescin (ex/em=485/530) for 30 min at 37° C., 5% CO2. Then cells were subjected 3 times wash with HBSS and stained with 20 nM of Mitotracker TMRM (ex/em=550/575 nm) for 15 min at 37° C. and examined by confocal laser scanning microscopy.

[5] = system: Human LDL (low density lipoprotein); experiment: LDL oxidation induced by CuSO4 (conjugated dienes); assay type: biochemical; details: for rate of LDL oxidation (rate of formation of conjugated dienes): peptides 100 μM
Experimental: Human LDL (low density lipoprotein) was prepared fresh from stored plasma. LDL oxidation was induced catalytically by the addition of […] CuSO4, and the formation of conjugated dienes was monitored at […] for 5 h at 37° C. (B. Moosmann and C. Behl, Mol Pharmacol., 61, 260-268 (2002)).

[6] = Linoleic acid peroxidation induced by ABAP (conjugated dienes); details: for rate of linoleic acid peroxidation (slope of diene formation): peptides 100 μM
[7] = peptide only during 90 min reperfusion
[8] = peptide perfused 30 min before 30 min ischemia and during 90 min reperfusion

Row | Molecule | EC50, increase of cell survival (N2A cells [1]) | cell survival (MTS) (N2A cells [1]) | lipid peroxidation (HNE-modified proteins) [2, 7] | lipid peroxidation (HNE-modified proteins) [2, 8] | amount of H2O2 generated (AUC over 20 min) [3] | EC50, reduction of intracellular ROS (N2A cells [4]) | intracellular ROS (N2A cells [4]) | rate of LDL oxidation (rate of formation of conjugated dienes) [5] | rate of LDL oxidation ([5]; varying concentrations, 10 mM CuSO4) | rate of linoleic acid peroxidation (slope of diene formation) [6] | peroxidation of linoleic acid ([6]; varying concentrations) | concentration achieving complete protection against t-BHP (N2A cells [1]; t-BHP 0.05-0.1 mM, 24 h) | t-BHP-induced cytotoxicity (N2A cells [1]; t-BHP 0.05-0.1 mM, 24 h, concurrent treatment) | production of H2O2 induced by antimycin ([3]; dose response) | spontaneous production of H2O2 ([3]; dose response) | DCF fluorescence (fluorescent microscopy) (N2A cells [4]; 50 μM tBHP, 1 nM SS-31, 6 h) | reduction of ROS production (N2A cells [4]; 100 μM tBHP, 1 nM SS-31) | rate of ROS accumulation/production (N2A cells [4]; 0.1 mM (100 μM) t-BHP, over 4 h) | ROS accumulation (DCF fluorescence, confocal) (N2A cells [4]; 0.1 mM t-BHP, 1 nM SS-31, 6 h)
1 | 2′,6′-Dmt-Arg-Phe-Lys-NH2 [SS-02] | nM range | increased cell survival | reduced lipid peroxidation | reduced lipid peroxidation | significantly reduced | nM range | dose-dependently reduced intracellular ROS | reduced rate of LDL oxidation | dose-dependently inhibited | reduced the rate of linoleic acid peroxidation | dose-dependently inhibited | – | – | – | – | – | – | – | –
2 | Cc1cc(O)cc(C)c1C[C@H](NC(=O)[C@H](N)CCCNC(=N)N)C(=O)N[C@@H](CCCCN)C(=O)N[C@@H](Cc1ccccc1)C(N)=O [SS-31, D-Arg-2′6′-Dmt-Lys-Phe-NH2] (H-[dR][Dmt]KF-NH2; N-terminus assumed) | nM range | increased cell survival | reduced lipid peroxidation | reduced lipid peroxidation | significantly reduced | nM range | dose-dependently reduced intracellular ROS | reduced rate of LDL oxidation | – | reduced the rate of linoleic acid peroxidation | – | 1 nM | dose-dependent reduction | dose-dependently reduced | dose-dependently reduced | significantly reduced | > 50% | dose-dependently inhibited; also recorded: dose-dependently reduced | reduced ROS accumulation
